According to patent US20230135877A1, “COMPOSITIONS AND METHODS FOR TREATING AND PREVENTING LUNG DISEASE” (Arizona Board of Regents on Behalf of the University of …, priority 2020, published 2023):
Entries after “also recorded” stand apart in the source; their conditions may differ. Where two headings read alike, the source gives them in different places. Where a SMILES comes first, the peptide text is derived from it. Bridges are numbered along the chain shown (N, C = ends). Roman numbers before positions name the chains, in order. Where no end group is shown, it is not given here. [ ]: non-standard residue; d: D form. Nle = CCCC[C@H](N)C(=O)O

Key:
[1] = test system: eosinophils; experiment: Eosinophil cytotoxicity by real-time impedance tracing (xCELLigence RTCA); type: cell-based, IL-5 transgenic mice; conditions: for Average magnitude of largest AUC: AUC of normalized cell index, negative AUC = cell death; for average AUC (decrease in cell index): 30 μg/ml; for normalized cell index tracings over time (peptide activity): after 24 hours; for cytotoxic effect on eosinophils as measured by AUC: 3 μg/ml
Text: IL-5 transgenic mice were euthanized and blood collected by cardiac puncture through the left ventricle. Red blood cells (RBCs) were lysed using a red blood cell lysis solution (Miltenyi Biotec, Auburn CA). Eosinophils were isolated by negative selection using biotin-conjugated antibodies (CD45R, Thy 1.2, F4/80) and magnetic beads, as previously described (see, Dy, A. B. C., et al., 2019 J Immunol 203: 1122-1130; Ledford, J. G., et al., 2012 PLoS One 7: e32436). Purity of each preparation was verified using standard morphometric analysis of cytocentrifuged slides stained with Easy III™ rapid differential staining kit (Azer Scientific, Morgantown Pa.) to be greater than 95%.
High throughput real-time monitoring of eosinophil cell death was assessed by measuring electrical impedance using the xCELLigence Real-Time Cell Analyzer (ACEA Biosciences, San Diego Calif.) as previously described (see, Dy, A. B. C., et al., 2019 J Immunol 203: 1122-1130; Flynn, A. N., et al., FASEB J 27: 1498-1510; Zeng, C., et al., Environ Res 164: 452-458). Using 96-well gold electrode coated plates (E-plates, ACEA Biosciences) incubated at 37° C. and 5% CO2, an initial background reading was obtained with media only. In a total volume of […] were seeded at 1×10^6 cells/well and allowed to settle for ˜5 hours. Test compounds were added at various concentrations (1, 3, 10 and 30 μg/ml) and changes in electrical impedance were measured over time. Impedance measurements were calculated and presented as normalized cell index (see, Flynn, A. N., et al., FASEB J 27: 1498-1510; Zeng, C., et al., Environ Res 164: 452-458), where a decrease in cell index corresponds to an increase in eosinophil cytotoxicity. Impedance tracings over time were derived from averages of 3-4 technical replicates. To quantify and compare cytotoxicity, the area under the curve (AUC) was calculated using cell index values. Half maximal effective concentration (EC50) values were generated using equivalent molar concentrations and their corresponding dose-response curves for each peptidomimetic.

[2] = test system: mouse model of asthma; experiment: HDM experimental allergen challenge, in vivo mouse model of asthma; design: species or system mice; conditions: pre-clinical mouse model of asthma; preliminary data
Text: FIG. 1A-C. Evaluation of SP-A-derived 10-mer native peptide in an in vivo mouse model of asthma. A) Schematic of HDM experimental allergen challenge. B) Newtonian resistance
(Rn) during methacholine challenge of wild-type mice 6 days after terminal HDM challenge. C) Total eosinophil counts in BAL (left panel) and mucin production (right panel) by PAS scoring. Unpaired t-test, *p<0.05, **p<0.01.

[3] = Table 3 summary of lead peptidomimetics, eosinophils, RTCA, read-out: EC50

Row | Molecule | EC50 [1] | Average magnitude of largest AUC ([1]; eosinophils, RTCA) | Concentration at which average AUC is largest ([1]; eosinophils, RTCA) | other results
1 | Ac-SDGTPVNYTNWYRGEPAGRGKEQ-NH2 [Peptidomimetic 888] | 35 nM |  |  | 
2 | Ac-GDFRYSDGTPVNYTNWYRGE-NH2 [Peptidomimetic 889] | 1790 nM |  |  | 
3 | Ac-KEQCVEMYTD-OH [Peptidomimetic 870, Ac-KEQCVEMYTD-acid] | 10800 nM |  |  | 
4 | CCCC[C@H](NC(=O)[C@H](CCC(=O)O)NC(=O)[C@@H](NC(=O)[C@H](CS)NC(=O)[C@H](CCC(N)=O)NC(=O)[C@H](CCC(=O)O)NC(=O)[C@H](CCCCN)NC(C)=O)C(C)C)C(=O)N[C@@H](Cc1ccc(O)cc1)C(=O)N[C@H](C(=O)N[C@@H](CC(=O)O)C(N)=O)[C@@H](C)O [Peptidomimetic 882, Ac-KEQCVE-Nle-YTD-NH2] (Ac-KEQCVE[Nle]YTD-NH2) | 3000 nM |  |  | 
5 | CCCC[C@H](NC(=O)[C@H](CCC(=O)O)NC(=O)[C@@H](NC(=O)[C@H](CS)NC(=O)[C@H](CCC(N)=O)NC(=O)[C@H](CCC(=O)O)NC(=O)[C@H](CCCCN)NC(=O)CNC(=O)[C@@H](Cc1c[nH]c2ccccc12)NC(C)=O)C(C)C)C(=O)N[C@@H](Cc1ccc(O)cc1)C(=O)N[C@H](C(=O)N[C@@H](CC(=O)O)C(N)=O)[C@@H](C)O [Peptidomimetic 894, Ac-wGKEQCVE-Nle-YTD-NH2] (Ac-[dW]GKEQCVE[Nle]YTD-NH2) | 12 nM | −1.63 | 0.01 µM | magnitude of the calculated AUCs compared with full-length SP-A, 10-mer, 20-mer and several peptidomimetics ([1]; eosinophils, RTCA): much smaller
6 | PAGRGKEQCVEMYTDGQWND [20-mer peptide, reference compound] | 14700 nM | −3.50 | 13.10 µM | average AUC (decrease in cell index) ([1]; eosinophils, RTCA): -3.50; EC50 [1, 3]: 14700 nM; normalized cell index tracings over time (peptide activity) ([1]; eosinophils, RTCA): decline in peptide activity after 24 hours; airway hyperresponsiveness [2]: reduce; airway mucus production [2]: reduce; eosinophilia [2]: reduce
7 | Ac-KEQAVEMYTD-NH2 [Peptidomimetic 884, Ac-KEQAVEMYTD-NH2] | 10600 nM |  |  | 
8 | Ac-KEQCVEMYTD (N-terminus assumed) [10-mer peptide, KEQCVEMYTD, reference compound] | 16000 nM | −2.62 | 24.00 µM | average AUC (decrease in cell index) ([1]; eosinophils, RTCA): -2.62; EC50 [1, 3]: 16000 nM; normalized cell index tracings over time (peptide activity) ([1]; eosinophils, RTCA): decline in peptide activity after 24 hours; airway hyperresponsiveness [2]: reduce; airway mucus production [2]: reduce; eosinophilia [2]: reduce
9 | Ac-WGKEQCVEMYTD-NH2 [Peptidomimetic 867, Ac-WGKEQCVEMYTD-NH2] |  | −9.06 | 1.96 µM | cytotoxic effect on eosinophils as measured by AUC [1]: most robust cytotoxic effect; also recorded: most comparable response to full-length SP-A; EC50 [1, 3]: 950 nM
10 | CSCC[C@H](NC(=O)[C@H](CCC(=O)O)NC(=O)[C@@H](NC(=O)[C@H](CSSC[C@H](NC(=O)[C@H](CCC(N)=O)NC(=O)[C@H](CCC(=O)O)NC(=O)[C@H](CCCCN)NC(C)=O)C(=O)N[C@H](C(=O)N[C@@H](CCC(=O)O)C(=O)N[C@@H](CCSC)C(=O)N[C@@H](Cc1ccc(O)cc1)C(=O)N[C@H](C(=O)N[C@@H](CC(=O)O)C(N)=O)[C@@H](C)O)C(C)C)NC(=O)[C@H](CCC(N)=O)NC(=O)[C@H](CCC(=O)O)NC(=O)[C@H](CCCCN)NC(C)=O)C(C)C)C(=O)N[C@@H](Cc1ccc(O)cc1)C(=O)N[C@H](C(=O)N[C@@H](CC(=O)O)C(N)=O)[C@@H](C)O [Peptidomimetic 868, (Ac-KEQCVEMYTD-NH2)2] (I: Ac-KEQCVEMYTD-NH2 / II: Ac-KEQCVEMYTD-NH2; disulfide I:4-II:4) |  | −9.21 | 1.17 µM | cytotoxic effect on eosinophils as measured by AUC [1]: most robust cytotoxic effect; also recorded: most comparable response to full-length SP-A; EC50 [1, 3]: 10900 nM
11 | Ac-KEQCVEMYTD-NH2 [Peptidomimetic 856, Ac-KEQCVEMYTD-NH2] | 8210 nM |  |  | 
12 | CCCC[C@H](NC(=O)[C@H](CCC(=O)O)NC(=O)[C@@H](NC(=O)[C@H](C)NC(=O)[C@H](CCC(N)=O)NC(=O)[C@H](CCC(=O)O)NC(=O)[C@H](CCCCN)NC(=O)CNC(=O)[C@H](Cc1c[nH]c2ccccc12)NC(C)=O)C(C)C)C(=O)N[C@@H](Cc1ccc(O)cc1)C(=O)N[C@H](C(=O)N[C@@H](CC(=O)O)C(N)=O)[C@@H](C)O [Peptidomimetic 891, Ac-WGKEQAVE-Nle-YTD-NH2] (Ac-WGKEQAVE[Nle]YTD-NH2) | 1030 nM |  |  | 
13 | Full-length SP-A: Full-length surfactant protein A; served as the positive control for eosinophil cell death |  | −13.89 | 0.86 µM | average AUC (decrease in cell index) ([1]; eosinophils, RTCA): −13.89; eosinophil cell death ([1]; eosinophils, RTCA): induced eosinophil cell death in a dose-dependent manner; EC50 ([1]; eosinophils, RTCA, concentration range 1, 3, 10 and 30 μg/ml, read-out: EC50 (half maximal effective concentration, based on AUC at each dose)): 158 nM
14 | H-KEQCVEMYTD-OH [Peptidomimetic 871, H-KEQCVEMYTD-acid] | 2520 nM |  |  | 
15 | CCCC[C@H](NC(=O)[C@H](CCC(=O)O)NC(=O)[C@@H](NC(=O)[C@H](CS)NC(=O)[C@H](CCC(N)=O)NC(=O)[C@H](CCC(=O)O)NC(=O)[C@H](CCCCN)NC(=O)CNC(=O)[C@H](CCCNC(=N)N)NC(C)=O)C(C)C)C(=O)N[C@@H](Cc1ccc(O)cc1)C(=O)N[C@H](C(=O)N[C@@H](CC(=O)O)C(N)=O)[C@@H](C)O [Peptidomimetic 893, Ac-RGKEQCVE-Nle-YTD-NH2] (Ac-RGKEQCVE[Nle]YTD-NH2) | 38 nM |  |  | 
16 | Ac-KEQSVEMYTD-NH2 [Peptidomimetic 883, Ac-KEQSVEMYTD-NH2] | 9410 nM |  |  | 
17 | CCCC[C@H](NC(=O)[C@H](CCC(=O)O)NC(=O)[C@@H](NC(=O)[C@H](CS)NC(=O)[C@H](CCC(N)=O)NC(=O)[C@H](CCC(=O)O)NC(=O)[C@H](CCCCN)NC(=O)CNC(=O)[C@H](Cc1c[nH]c2ccccc12)NC(C)=O)C(C)C)C(=O)N[C@@H](Cc1ccc(O)cc1)C(=O)N[C@H](C(=O)N[C@@H](CC(=O)O)C(N)=O)[C@@H](C)O [Peptidomimetic 892, Ac-WGKEQCVE-Nle-YTD-NH2] (Ac-WGKEQCVE[Nle]YTD-NH2) | 8 nM | −1.07 | 0.10 µM | magnitude of the calculated AUCs compared with full-length SP-A, 10-mer, 20-mer and several peptidomimetics ([1]; eosinophils, RTCA): much smaller
